Measured values from ChEMBL document CHEMBL1221208, “ATP-competitive inhibitors of the mitotic kinesin KSP that function via an allosteric mechanism” (Nat Chem Biol, 2007).
Positions count from the first letter of the chain named. Calls of active or inactive are those of the source. No cut-off for these calls is given here.

Key:
[1] = biological target: T1, Kinesin-like protein KIF11 (Homo sapiens, UniProt P52732); assay: Inhibition of human wild type Eg5 using varying ATP levels in presence of saturating levels of microtubule by Lineweaver-Burke plot
T1 sequence (P52732 whole entry): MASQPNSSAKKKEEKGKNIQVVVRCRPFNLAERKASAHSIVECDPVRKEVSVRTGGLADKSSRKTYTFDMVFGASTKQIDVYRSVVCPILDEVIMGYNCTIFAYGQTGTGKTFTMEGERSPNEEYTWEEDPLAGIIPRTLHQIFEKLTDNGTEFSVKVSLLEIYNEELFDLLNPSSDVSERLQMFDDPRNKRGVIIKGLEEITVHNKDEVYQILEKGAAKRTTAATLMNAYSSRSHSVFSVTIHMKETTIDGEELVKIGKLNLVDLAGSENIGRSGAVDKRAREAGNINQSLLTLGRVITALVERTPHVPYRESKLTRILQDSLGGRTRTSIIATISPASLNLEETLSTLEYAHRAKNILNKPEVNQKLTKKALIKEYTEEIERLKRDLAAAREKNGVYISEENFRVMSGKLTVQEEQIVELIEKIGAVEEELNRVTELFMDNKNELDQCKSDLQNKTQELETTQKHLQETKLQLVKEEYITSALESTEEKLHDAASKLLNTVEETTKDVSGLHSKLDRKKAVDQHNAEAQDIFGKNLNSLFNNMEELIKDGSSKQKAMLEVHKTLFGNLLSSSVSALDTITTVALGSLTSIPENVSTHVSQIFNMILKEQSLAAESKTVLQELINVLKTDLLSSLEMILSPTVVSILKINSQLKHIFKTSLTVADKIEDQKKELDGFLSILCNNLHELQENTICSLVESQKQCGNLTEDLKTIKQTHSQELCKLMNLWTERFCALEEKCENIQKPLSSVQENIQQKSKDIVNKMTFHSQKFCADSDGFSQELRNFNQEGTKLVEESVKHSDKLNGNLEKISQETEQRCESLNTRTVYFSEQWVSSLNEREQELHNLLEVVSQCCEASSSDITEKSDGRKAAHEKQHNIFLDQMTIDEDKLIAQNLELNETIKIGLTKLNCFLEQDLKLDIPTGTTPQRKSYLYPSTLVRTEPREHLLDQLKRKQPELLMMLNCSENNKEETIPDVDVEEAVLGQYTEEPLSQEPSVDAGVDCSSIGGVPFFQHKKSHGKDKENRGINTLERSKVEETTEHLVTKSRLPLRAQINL

[2] = biological target: T2, Kinesin-like protein KIF11 (Homo sapiens) (UniProt P52732); assay: Competitive inhibition of human Eg5 assessed as effect on ATPase activity using varying ATP levels in absence of microtubule by Lineweaver-Burke plot
T2 sequence (whole entry): T1 sequence (P52732 whole entry)

[3] = Inhibition of human KSP KHC-L5 mutant using varying ATP levels in presence of saturating levels of microtubule by Lineweaver-Burke plot
Homo sapiens [4] = species on record: Homo sapiens; assay: Competitive inhibition of human KSP KHC-L5 mutant with respect to ATP using varying ATP levels in presence of saturating levels of microtubule by Lineweaver-Burke plot
[5] = tested on: T3, Kinesin-like protein KIF11 (Homo sapiens), P52732 [D130V]; assay: Uncompetitive inhibition of human KSP D130V mutant with respect to microtubule using varying ATP levels in presence of saturating levels of microtubule by Lineweaver-Burke plot
T3 sequence (whole entry): T1 sequence (P52732 whole entry) with D130V

Homo sapiens [6] = species on record: Homo sapiens; assay: Uncompetitive inhibition of human KSP KHC-L5 mutant with respect to microtubule using varying ATP levels in presence of saturating levels of microtubule by Lineweaver-Burke plot
HCT-116 [7] = assay: Antiproliferative activity against human HCT116 cells expressing Kinesin-like protein KIF11 D130V mutant after 72 hrs by Cell titer Glo assay; type: functional, cell-based; settings: HCT-116, 72 h
HCT-116 [8] = assay: Induction of monopolar spindle formation in human HCT116 cells; type: functional, cell-based
HCT-116 [9] = assay: Antiproliferative activity against IC50 biaryl selected drug-resistant against human HCT116 cells after 72 hrs by Cell titer Glo assay; type: functional, cell-based; settings: HCT-116, 72 h
HCT-116 [10] = assay: Antiproliferative activity against IC95 biaryl selected drug-resistant against human HCT116 cells after 72 hrs by Cell titer Glo assay; type: functional, cell-based; settings: HCT-116, 72 h
HCT-116 [11] = assay: Antiproliferative activity against 3x IC95 biaryl selected drug-resistant against human HCT116 cells after 72 hrs by Cell titer Glo assay; type: functional, cell-based; settings: HCT-116, 72 h
HCT-116 [12] = assay: Antiproliferative activity against IC50 biaryl selected human HCT116 cells expressing Kinesin-like protein KIF11 D130V mutant after 72 hrs by Cell titer Glo assay; type: functional, cell-based; settings: HCT-116, 72 h
HCT-116 [13] = assay: Antiproliferative activity against IC95 biaryl selected human HCT116 cells expressing Kinesin-like protein KIF11 D130V mutant after 72 hrs by Cell titer Glo assay; type: functional, cell-based; settings: HCT-116, 72 h
[14] = Inhibition of KSP A356 mutant in 3x IC95 biaryl selected human HCT116 cells using varying ATP levels in presence of saturating levels of microtubule by Lineweaver-Burke plot; type: cell-based; settings: hct-116

Row | SMILES | Ki [1] [nM] | inhibition [2] | Ki [3] [nM] | inhibition (Homo sapiens [4]) | inhibition [5] | inhibition (Homo sapiens [6]) | IC50 (HCT-116 [7]) [nM] | Activity (HCT-116 [8]) | IC50 (HCT-116 [9]) [nM] | IC50 (HCT-116 [10]) [nM] | IC50 (HCT-116 [11]) [nM] | IC50 (HCT-116 [12]) [nM] | IC50 (HCT-116 [13]) [nM] | Ki [14] [nM]
1 | NC(=O)Nc1ccc(-c2ccc(C(F)(F)F)cc2)cc1F | 8.8 | inactive | 6 | Active | Active | Active |  |  |  |  |  |  |  | 
2 | O=C1CCc2cc(-c3ccc(C(F)(F)F)cc3)ccc2N1 | 1.8 | inactive | 2.1 | Active | Active | Active | 0.45 | Active | 36 | 162 | 2090 | 0.83 | 3.3 | 109
